The Kinase Knowledgebase extract (Sharma et al. 2016)

Legend:
[1] = target: MAPK14 (UniProt Q16539); experiment: Inhibition of p38 Kinase Activity
[2] = tested on: MAPK14 (C3H mice); experiment: Inhibition of LPS Stimulated TNF Production in C3H Mice; details: dose or concentration not given here
[3] = target: MAPK14 (human) (UniProt Q16539); experiment: Inhibition of HFF Cell Proliferation
[4] = target: MAPK14 (human) (UniProt Q16539); experiment: Inhibition of TNF Release from Human Peripheral Blood Mononuclear Cells; details: pbmc

Chain of MAPK14 (human) (Q16539 whole entry, looked up): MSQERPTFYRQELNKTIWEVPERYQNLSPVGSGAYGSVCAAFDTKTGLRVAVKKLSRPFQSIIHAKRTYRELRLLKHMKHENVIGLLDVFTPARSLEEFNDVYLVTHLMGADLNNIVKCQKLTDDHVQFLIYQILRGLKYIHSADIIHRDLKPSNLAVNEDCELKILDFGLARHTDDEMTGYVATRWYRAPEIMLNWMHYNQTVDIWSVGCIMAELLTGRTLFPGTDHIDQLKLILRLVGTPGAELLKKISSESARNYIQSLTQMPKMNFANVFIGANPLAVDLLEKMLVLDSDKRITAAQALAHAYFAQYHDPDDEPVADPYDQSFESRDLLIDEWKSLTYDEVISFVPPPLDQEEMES
Chain of MAPK14 (Q16539 whole entry, looked up): as above

Compound	IC50 [1]	further results
Fc1ccc(-c2nn3cc(C(F)(F)F)ccc3c2-c2ccnc(NCCN3CCCCC3)n2)cc1Cl	100 to 1000 nM	
CCN(CC)CCNc1nccc(-c2c(-c3ccc(C(F)(F)F)cc3)nn3cc(C(F)(F)F)ccc23)n1	1000 to 10000 nM	
CCCN(CCC)CCNc1nccc(-c2c(-c3ccc(F)c(Cl)c3)nn3cc(C(F)(F)F)ccc23)n1	100 to 1000 nM	
Fc1ccc(-c2nn3ccccc3c2-c2ccnc(NC3CC3)n2)cc1	< 500 nM	
COc1ccn2nc(-c3ccc(F)cc3)c(-c3ccncc3)c2c1	500 to 5000 nM	inhibition [2]: 11%
CN(C)CCCNc1nccc(-c2c(-c3ccc(F)cc3)nn3cc(C(F)(F)F)ccc23)n1	100 to 1000 nM	
FC(F)(F)c1ccc2c(-c3ccnc(NCCN4CCCCC4)n3)c(-c3cccc(Cl)c3)nn2c1	100 to 1000 nM	
FC(F)(F)c1ccc(-c2nn3cc(C(F)(F)F)ccc3c2-c2ccnc(NCCN3CCOCC3)n2)cc1	1000 to 10000 nM	
FC(F)(F)c1ccc2c(-c3ccnc(NCCCCN4CCCC4)n3)c(-c3cccc(Cl)c3)nn2c1	10 to 100 nM	
CC(C)N(CCNc1nccc(-c2c(-c3ccc(F)c(Cl)c3)nn3cc(C(F)(F)F)ccc23)n1)C(C)C	100 to 1000 nM	
FC(F)(F)c1ccc2c(-c3ccnc(NCCN4CCCC4)n3)c(-c3cccc(Cl)c3)nn2c1	100 to 1000 nM	
Fc1ccc(-c2nn3ccccc3c2-c2ccnc(NCc3cccnc3)c2)cc1	< 500 nM	IC50 [3]: 5000 to 50000 nM
CN(C)CCCNc1nccc(-c2c(-c3ccc(F)c(Cl)c3)nn3cc(C(F)(F)F)ccc23)n1	10 to 100 nM	
OCCCNc1cc(-c2c(-c3ccc(F)cc3)nn3ccccc23)ccn1	< 500 nM	IC50 [3]: > 50000 nM; inhibition [2]: 45%
CCCN(CCC)CCNc1nccc(-c2c(-c3cccc(Cl)c3)nn3cc(C(F)(F)F)ccc23)n1	100 to 1000 nM	
Fc1ccc(-c2nn3cc(C(F)(F)F)ccc3c2-c2ccncc2)cc1	< 500 nM	
Nc1ncccc1C(=O)OCc1ccn2nc(-c3ccc(F)cc3)c(-c3ccncc3)c2c1	< 500 nM	IC50 [3]: > 50000 nM
NC(=O)c1ccc2c(-c3ccnc(NCCCN4CCCCC4)n3)c(-c3ccc(F)cc3)nn2c1	< 500 nM	
OCc1ccn2nc(-c3ccc(F)cc3)c(-c3ccncc3)c2c1	< 500 nM	
CN1CCN(CCCNc2nccc(-c3c(-c4ccc(F)cc4)nn4cc(C(F)(F)F)ccc34)n2)CC1	10 to 100 nM	

Compound	IC50 [1]	further results
Fc1ccc(-c2nn3ccccc3c2-c2ccncc2)cc1	< 500 nM	IC50 [3]: > 50000 nM; inhibition [2]: 65%
CC(C)Nc1nccc(-c2c(-c3ccc(F)cc3)nn3cc(C(F)(F)F)ccc23)n1	< 500 nM	inhibition [2]: 45%
CCCN1CCN(CCNc2nccc(-c3c(-c4ccc(C(F)(F)F)cc4)nn4cc(C(F)(F)F)ccc34)n2)CC1	1000 to 10000 nM	
CCCN1CCN(CCNc2nccc(-c3c(-c4ccc(F)c(Cl)c4)nn4cc(C(F)(F)F)ccc34)n2)CC1	10 to 100 nM	
CCN(CC)CCCCNc1nccc(-c2c(-c3ccc(F)c(Cl)c3)nn3cc(C(F)(F)F)ccc23)n1	10 to 100 nM	
FC(F)(F)c1ccc(-c2nn3cc(C(F)(F)F)ccc3c2-c2ccnc(NCCCN3CCCCC3)n2)cc1	1000 to 10000 nM	
FC(F)(F)c1ccc(-c2nn3cc(C(F)(F)F)ccc3c2-c2ccnc(NCCN3CCCCC3)n2)cc1	1000 to 10000 nM	
Fc1ccc(-c2nn3cc(C(F)(F)F)ccc3c2-c2ccnc(Oc3ccccc3)n2)cc1	< 500 nM	
NC(=O)c1ccc2c(-c3ccnc(NC4CC4)n3)c(-c3ccc(F)cc3)nn2c1	< 500 nM	IC50 [4]: < 500 nM; inhibition [2]: 90%
FC(F)(F)c1ccc2c(-c3ccnc(NCCN4CCCCCC4)n3)c(-c3cccc(Cl)c3)nn2c1	100 to 1000 nM	
Nc1nccc(-c2c(-c3ccc(F)cc3)nn3cc(C(F)(F)F)ccc23)n1	< 500 nM	
FC(F)(F)c1ccc(-c2nn3cc(C(F)(F)F)ccc3c2-c2ccnc(NCCCN3CCOCC3)n2)cc1	1000 to 10000 nM	
Fc1ccc(-c2nn3cc(C(F)(F)F)ccc3c2-c2ccnc(NCCN3CCCCCC3)n2)cc1Cl	100 to 1000 nM	
OCCCNc1nccc(-c2c(-c3ccc(F)cc3)nn3cc(C(F)(F)F)ccc23)n1	< 500 nM	
Fc1ccc(-c2nn3ccccc3c2-c2ccncn2)cc1	500 to 5000 nM	IC50 [3]: > 50000 nM; inhibition [2]: 67%
Fc1ccc(-c2nn3cc(C(F)(F)F)ccc3c2-c2ccnc(NCCN3CCCC3)n2)cc1Cl	100 to 1000 nM	
Nc1nccc(-c2c(-c3ccc(F)cc3)nn3ccccc23)n1	< 500 nM	inhibition [2]: 62%
FC(F)(F)c1ccc2c(-c3ccnc(NCCCN4CCOCC4)n3)c(-c3cccc(Cl)c3)nn2c1	10 to 100 nM	
N#Cc1ccc2c(-c3ccnc(NC4CC4)n3)c(-c3ccc(F)cc3)nn2c1	< 500 nM	inhibition [2]: 52%
CN(C)CCCNc1nccc(-c2c(-c3ccc(C(F)(F)F)cc3)nn3cc(C(F)(F)F)ccc23)n1	1000 to 10000 nM	

Compound	IC50 [1]	further results
Fc1ccc(-c2nn3cc(C(F)(F)F)ccc3c2-c2ccnc(NCCN3CCOCC3)n2)cc1Cl	10 to 100 nM	
NC(=O)c1ccc2c(-c3ccnc(NCCCO)n3)c(-c3ccc(F)cc3)nn2c1	< 500 nM	
Fc1ccc(-c2nn3cc(C(F)(F)F)ccc3c2-c2ccnc(NC3CC3)n2)cc1	< 500 nM	inhibition [2]: 24%
CSc1nccc(-c2c(-c3ccc(F)cc3)nn3ccccc23)n1	< 500 nM	inhibition [2]: 56%
Fc1ccc(-c2nn3cc(C(F)(F)F)ccc3c2-c2ccnc(NCCCN3CCCCC3)n2)cc1Cl	100 to 1000 nM	
CCCN(CCC)CCNc1nccc(-c2c(-c3ccc(C(F)(F)F)cc3)nn3cc(C(F)(F)F)ccc23)n1	1000 to 10000 nM	
CCCCNc1nccc(-c2c(-c3ccc(F)cc3)nn3ccccc23)n1	< 500 nM	inhibition [2]: 88%
Fc1ccc(-c2nn3ccccc3c2-c2ccnc(NCCc3cnc[nH]3)n2)cc1	< 500 nM	
CCCN1CCN(CCNc2nccc(-c3c(-c4cccc(Cl)c4)nn4cc(C(F)(F)F)ccc34)n2)CC1	10 to 100 nM	
CN1CCN(CCCNc2nccc(-c3c(-c4ccc(F)c(Cl)c4)nn4cc(C(F)(F)F)ccc34)n2)CC1	10 to 100 nM	
Fc1ccc(-c2nn3ccccc3c2-c2ccnc(NCc3ccccn3)n2)cc1	< 500 nM	inhibition [2]: 87%
CCN(CC)CCCCNc1nccc(-c2c(-c3cccc(Cl)c3)nn3cc(C(F)(F)F)ccc23)n1	10 to 100 nM	
CN(C)CCCNc1nccc(-c2c(-c3cccc(Cl)c3)nn3cc(C(F)(F)F)ccc23)n1	10 to 100 nM	
Fc1ccc(-c2nn3cc(C(F)(F)F)ccc3c2-c2ccnc(NCCCN3CCOCC3)n2)cc1Cl	100 to 1000 nM	
Fc1ccc(-c2nn3ccccc3c2-c2ccnc(NCc3ccc(Cl)cc3)c2)cc1	< 500 nM	IC50 [4]: < 500 nM; inhibition [2]: 42%
Cc1ccc(C)c(Oc2nccc(-c3c(-c4ccc(F)cc4)nn4cc(C(F)(F)F)ccc34)n2)c1	< 500 nM	
FC(F)(F)c1ccc(-c2nn3cc(C(F)(F)F)ccc3c2-c2ccnc(NCCN3CCCC3)n2)cc1	1000 to 10000 nM	
CCN(CC)CCNc1nccc(-c2c(-c3cccc(Cl)c3)nn3cc(C(F)(F)F)ccc23)n1	100 to 1000 nM	
